The values that follow come from patent US10988459B2 (priority 2015, dated 2021).

Values joined by “and” are separate entries in the source; they are usually repeats but may differ in a detail not shown here. Equal entries are not always repeated.

Sequence of human RIP1 kinase domain (2-375) (Q13546 2-375): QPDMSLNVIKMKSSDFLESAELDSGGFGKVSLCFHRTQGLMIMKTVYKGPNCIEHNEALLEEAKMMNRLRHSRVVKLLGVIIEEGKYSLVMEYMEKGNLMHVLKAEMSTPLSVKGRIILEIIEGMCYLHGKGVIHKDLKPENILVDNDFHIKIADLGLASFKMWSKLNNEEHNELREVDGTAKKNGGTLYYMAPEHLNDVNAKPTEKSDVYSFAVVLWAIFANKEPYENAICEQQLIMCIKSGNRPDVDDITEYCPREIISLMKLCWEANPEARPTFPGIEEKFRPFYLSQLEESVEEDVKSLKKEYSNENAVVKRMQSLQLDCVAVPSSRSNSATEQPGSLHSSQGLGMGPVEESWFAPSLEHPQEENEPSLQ

The assay has as its target human RIP1 kinase domain (2-375) (Homo sapiens (Human), UniProt Q13546). As to the kind of experiment: biochemical. The settings on record: tight-binding apparent inhibition constant; human RIP1 kinase domain (2-375) 50 nM, 50 uM ATP, 2 hours; read-out: Ki. In kind it is biochemical. In a few lines: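 Ki^app comes from Morrison tight-binding fits of fractional activity versus compound concentration. Activity was read as ADP production, via tracer displacement lowering fluorescence polarization (633 nm laser). Conditions: 2 h, 50 nM insect-cell-expressed enzyme, 50 uM ATP, 30 mM MgCl2, 1 mM DTT, 0.5% DMSO, pH 7.5 Hepes.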
Take `CN1C(=O)[C@@H](NC(=O)c2nc3c(-c4ccccc4)cccn3n2)COc2ccccc21` [Example 568, 8-phenyl-N-[(3S)-5-methyl-4-oxo-2,3-dihydro-1,5-benzoxazepin-3-yl]-[1,2,4]triazolo[1,5-a]pyridine-2-carboxamide]: the Ki is 8.1 nM.

As to `Cc1cc2n(n1)CC[C@H](NC(=O)c1ncn(CC3CCC(F)(F)C3)n1)C(=O)N2C` (stereo partly drawn) [Example 569, 1-[(3,3-difluorocyclopentyl)methyl]-N-(6S)-2,4-dimethyl-5-oxo-7,8-dihydro-6H-pyrazolo[1,5-a][1,3]diazepin-6-yl-1,2,4-triazole-3-carboxamide], the Ki was 580 nM.

Consider `CN1C(=O)[C@@H](NC(=O)c2ncn(Cc3ccccc3)n2)CCn2nc(C3(F)CC3)cc21` [Example 570, 1-benzyl-N-(6S)-2-(1-fluorocyclopropyl)-4-methyl-5-oxo-7,8-dihydro-6H-pyrazolo[1,5-a][1,3]diazepin-6-yl-1,2,4-triazole-3-carboxamide], for which the Ki was 24 nM.

For the molecule `CN1C(=O)[C@@H](NC(=O)c2nc3n(n2)CCC3c2ccccc2)COc2ccccc21` (stereo partly drawn) [Example 571, 7-phenyl-N-[(3S)-5-methyl-4-oxo-2,3-dihydro-1,5-benzoxazepin-3-yl]-6,7-dihydro-5H-pyrrolo[1,2-b][1,2,4]triazole-2-carboxamide], the Ki was 23 nM.

Take `CN1C(=O)[C@@H](NC(=O)c2nc3n(n2)CC[C@H]3c2ccccc2)COc2ccccc21` [Example 572, (7S)-7-phenyl-N-[(3S)-5-methyl-4-oxo-2,3-dihydro-1,5-benzoxazepin-3-yl]-6,7-dihydro-5H-pyrrolo[1,2-b][1,2,4]triazole-2-carboxamide]: the Ki worked out at 450 nM.

Take `CN1C(=O)[C@@H](NC(=O)c2nc3n(n2)CC[C@@H]3c2ccccc2)COc2ccccc21` [Example 573, (7R)-7-phenyl-N-[(3S)-5-methyl-4-oxo-2,3-dihydro-1,5-benzoxazepin-3-yl]-6,7-dihydro-5H-pyrrolo[1,2-b][1,2,4]triazole-2-carboxamide]: the Ki was found to be 17 nM.

Regarding `Cc1cc2n(n1)CC[C@H](NC(=O)c1nc3n(n1)CCC3c1ccccc1)C(=O)N2C` (stereo partly drawn) [Example 574, 7-phenyl-N-[(6S)-2,4-dimethyl-5-oxo-7,8-dihydro-6H-pyrazolo[1,5-a][1,3]diazepin-6-yl]-6,7-dihydro-5H-pyrrolo[1,2-b][1,2,4]triazole-2-carboxamide], the Ki came out at 58 nM.

For the molecule `Cc1ncc2n1CC[C@@H](NC(=O)c1ncn(Cc3ccccc3F)n1)C(=O)N2C` [Example 576, 1-[(2-fluorophenyl)methyl]-N-(3R)-1,7-dimethyl-2-oxo-4,5-dihydro-3H-imidazo[1,5-a][1, 3]diazepin-3-yl-1,2,4-triazole-3-carboxamide], the Ki came to 40 nM.

Regarding `Cc1ncc2n1CC[C@@H](NC(=O)c1ncn(Cc3cc(F)ccc3F)n1)C(=O)N2C` [Example 577, 1-[(2,5-difluorophenyl)methyl]-N-(3R)-1,7-dimethyl-2-oxo-4,5-dihydro-3H-imidazo[1,5-a][1,3]diazepin-3-yl-1,2,4-triazole-3-carboxamide], the Ki stood at 80 nM.

As for `Cc1ncc2n1CC[C@@H](NC(=O)c1ncn(Cc3c(F)cccc3F)n1)C(=O)N2C` [Example 578, 1-[(2,6-difluorophenyl)methyl]-N-[(3R)-1,7-dimethyl-2-oxo-4,5-dihydro-3H-imidazo[1,5-a][1,3]diazepin-3-yl]-1,2,4-triazole-3-carboxamide], the Ki turned out to be 40 nM.

With `CN1C(=O)[C@@H](NC(=O)c2nc3n(n2)CCC3c2ccccc2)CCn2nccc21` (stereo partly drawn) [Example 579, 7-phenyl-N-[(6S)-4-methyl-5-oxo-7,8-dihydro-6H-pyrazolo[1,5-a][1,3]diazepin-6-yl]-6,7-dihydro-5H-pyrrolo[1,2-b][1,2,4]triazole-2-carboxamide], the Ki is 37 nM.

As to `Cc1ncn2c1N(C)C(=O)[C@H](NC(=O)c1ncn(Cc3ccccc3F)n1)CC2` [Example 580, 1-[(2-fluorophenyl)methyl]-N-[(3R)-1,9-dimethyl-2-oxo-4,5-dihydro-3H-imidazo[1,5-a][1,3]diazepin-3-yl]-1,2,4-triazole-3-carboxamide], the Ki stood at 54 nM.

Turning to `Cc1ncn2c1N(C)C(=O)[C@H](NC(=O)c1ncn(Cc3c(F)cccc3F)n1)CC2` [Example 581, 1-[(2,6-difluorophenyl)methyl]-N-(3R)-1,9-dimethyl-2-oxo-4,5-dihydro-3H-imidazo[1,5-a][1,3]diazepin-3-yl-1,2,4-triazole-3-carboxamide], the Ki was found to be 47 nM.

Regarding `CN1C(=O)[C@@H](NC(=O)c2ncn(Cc3ccccc3Cl)n2)CCn2nccc21` [Example 582, 1-[(2-chlorophenyl)methyl]-N-(6S)-4-methyl-5-oxo-7,8-dihydro-6H-pyrazolo[1,5-a][1,3]diazepin-6-yl-1,2,4-triazole-3-carboxamide], the Ki is 7.6 nM and 43 nM.

`CN1C(=O)[C@@H](NC(=O)c2ncn(Cc3ccccc3C(F)(F)F)n2)CCn2nccc21` [Example 583, N-(6S)-4-methyl-5-oxo-7,8-dihydro-6H-pyrazolo[1,5-a][1,3]diazepin-6-yl]-1-[[2-(trifluoromethyl)phenyl]methyl-1,2,4-triazole-3-carboxamide]: the Ki was determined as 24 nM.

For the molecule `Cc1cc2n(n1)CC[C@H](NC(=O)c1ncn(Cc3ccccc3C(F)(F)F)n1)C(=O)N2C` [Example 584, N-(6S)-2,4-dimethyl-5-oxo-7,8-dihydro-6H-pyrazolo[1,5-a][1,3]diazepin-6-yl-1-[[2-(trifluoromethyl)phenyl]methyl]-1,2,4-triazole-3-carboxamide], the Ki worked out at 25 nM.

For the molecule `Cc1cc2n(n1)CC[C@H](NC(=O)c1ncn(Cc3ccccc3)n1)C(=O)N2` [Example 586], the Ki is 63 nM.

`COc1ccccc1Cn1cnc(C(=O)N[C@H]2CCn3nccc3N(C)C2=O)n1` [Example 587, 1-[(2-methoxyphenyl)methyl]-N-(6S)-4-methyl-5-oxo-7,8-dihydro-6H-pyrazolo[1,5-a][1, 3]diazepin-6-yl-1,2,4-triazole-3-carboxamide]: the Ki worked out at 47 nM.

`Cc1ccccc1Cn1cnc(C(=O)N[C@H]2CCn3nccc3N(C)C2=O)n1` [Example 588, 1-(o-tolylmethyl)-N-(6S)-4-methyl-5-oxo-7,8-dihydro-6H-pyrazolo[1,5-a][1,3]diazepin-6-yl-1,2,4-triazole-3-carboxamide]: the Ki worked out at 13 nM.

On to `COc1ccccc1Cn1cnc(C(=O)N[C@H]2CCn3nc(C)cc3N(C)C2=O)n1` [Example 589, 1-[(2-methoxyphenyl)methyl]-N-(6S)-2,4-dimethyl-5-oxo-7,8-dihydro-6H-pyrazolo[1,5-a][1,3]diazepin-6-yl-1,2,4-triazole-3-carboxamide], for which the Ki turned out to be 48 nM.

On to `Cc1cc2n(n1)CC[C@H](NC(=O)c1ncn(Cc3ccccc3C#N)n1)C(=O)N2C` [Example 590, 1-[(2-cyanophenyl)methyl]-N-(6S)-2,4-dimethyl-5-oxo-7,8-dihydro-6H-pyrazolo[1,5-a][1, 3]diazepin-6-yl-1,2,4-triazole-3-carboxamide], for which the Ki stood at 700 nM.

As to `Cc1cc2n(n1)CC[C@H](NC(=O)c1ncn(Cc3ccccc3C)n1)C(=O)N2C` [Example 591, 1-(o-tolylmethyl)-N-(6S)-2,4-dimethyl-5-oxo-7,8-dihydro-6H-pyrazolo[1,5-a][1,3]diazepin-6-yl-1,2,4-triazole-3-carboxamide], the Ki stood at 17 nM.

Turning to `COc1ccccc1Cn1cnc(C(=O)N[C@H]2CCn3nc(C4CC4)cc3N(C)C2=O)n1` [Example 592], the Ki was 48 nM.

Turning to `CN1C(=O)[C@@H](NC(=O)c2ncn(Cc3ccccc3C#N)n2)CCn2nc(C3CC3)cc21` [Example 593], the Ki amounted to 79 nM.

Consider `CN1C(=O)[C@@H](NC(=O)c2ncn(CC3CCC(F)(F)C3)n2)CCn2nc(C3CC3)cc21` (some centres unmarked) [Example 594], for which the Ki stood at 420 nM.

As to `CN1C(=O)[C@@H](NC(=O)c2ncc3cnn(-c4c(F)cccc4F)c3n2)COc2ccccc21` [Example 595], the Ki was found to be 4.7 nM.

Consider `Cc1nc(C)n2c1N(C)C(=O)[C@H](NC(=O)c1ncn(Cc3ccccc3F)n1)CC2` [Example 596, 1-[(2-fluorophenyl)methyl]-N-(3R)-1,7,9-trimethyl-2-oxo-4,5-dihydro-3H-imidazo[1,5-a][1,3]diazepin-3-yl-1,2,4-triazole-3-carboxamide], for which the Ki was 100 nM.

As for `Cc1nc(C)n2c1N(C)C(=O)[C@H](NC(=O)c1ncn(Cc3c(F)cccc3F)n1)CC2` [Example 597, 1-[(2,6-difluorophenyl)methyl]-N-(3R)-1,7,9-trimethyl-2-oxo-4,5-dihydro-3H-imidazo[1,5-a][1,3]diazepin-3-yl-1,2,4-triazole-3-carboxamide], the Ki was found to be 130 nM.

On to `Cc1nc(C)n2c1N(C)C(=O)[C@H](NC(=O)c1ncn(Cc3cc(F)ccc3F)n1)CC2` [Example 598, 1-[(2,5-difluorophenyl)methyl]-N-(3R)-1,7,9-trimethyl-2-oxo-4,5-dihydro-3H-imidazo[1,5-a][1,3]diazepin-3-yl-1,2,4-triazole-3-carboxamide], for which the Ki was 130 nM.

On to `CN1C(=O)[C@H](NC(=O)c2ncn(Cc3ccccc3F)n2)CCn2cncc21` [Example 599, 1-[(2-fluorophenyl)methyl]-N-(3R)-1-methyl-2-oxo-4,5-dihydro-3H-imidazo[1,5-a][1,3]diazepin-3-yl-1,2,4-triazole-3-carboxamide], for which the Ki was determined as 35 nM.

In the case of `CN1C(=O)[C@H](NC(=O)c2ncn(Cc3c(F)cccc3F)n2)CCn2cncc21` [Example 600, 1-[(2,6-difluorophenyl)methyl]-N-[(3R)-1-methyl-2-oxo-4,5-dihydro-3H-imidazo[1,5-a][1,3]diazepin-3-yl]-1,2,4-triazole-3-carboxamide], the Ki is 50 nM.

`CN1C(=O)[C@H](NC(=O)c2ncn(Cc3ccccc3F)n2)CCn2ccnc21` [Example 601, 1-[(2-fluorophenyl)methyl]-N-(7R)-9-methyl-8-oxo-6,7-dihydro-5H-imidazo[1,2-a][1,3]diazepin-7-yl-1,2,4-triazole-3-carboxamide]: the Ki is 43 nM.
